Values of other authors in patent publication US7662811B2, “1,2,3,4-tetrahydropyrazin-2-yl acetamides and methods of use” (Amgen Inc., priority 2004, dated 2010).
No end group written: not given here.

Sequence: RPPGFSPFR [BK]
- half-life of BK in plasma: approximately 17 seconds
